Results on 1 molecule are retold here after patent US8501090B2, “Anti-microbial gas apparatus and method” (priority 2008, dated 2013).

The assay has as its system bacteria on healthy skin (back of the hand). In words: Anti-microbial effectiveness of nitric oxide on volunteers' hands (swab, five zone dilution on agar, zone-based grading). Format: in vivo. An excerpt: An experiment 46 used to determine the anti-microbial effectiveness of nitric oxide is illustrated in FIG. 3. In the experiment, five volunteers were selected 48. From a first hand of each volunteer, a technician using sterile gloves collected 50 a sample. This was accomplished by rubbing the back of the volunteer's hand with a sterile cotton collection swab for ten seconds. The swab was then applied 52 to a nutrient agar petri dish using the five corner or zone dilution method.
The five corner or zone dilution method involves mechanically diluting bacteria on a streak (blood agar) plate by sequentially spreading the bacteria across the plate in each of five zones. As the concentration of bacteria increases so do the number of zones containing bacteria. Bacteria on agar plate become visible as distinct circular colonies. Each colony represents an individual cell which has divided repeatedly to form a patch. The number of bacteria can be estimated by counting the number of patches or how far the bacteria is diluted by streaking it on the agar plate through the five zones.
After the sample was collected 50, the first hand was cleaned 54 using nitric oxide. This was done by placing the hand of the volunteer into a one-gallon plastic freezer bag. The bag was then inflated with nitric oxide through tubing attached to a portable nitric oxide generator. The open end of the bag was taped closed against the volunteer's forearm. A nitric oxide monitor assisted in keeping the nitric oxide concentration within the bag at 1,000 parts-per-million (ppm).
The volunteer maintained the hand inside the bag for fifteen minutes. After the fifteen minutes, the hand was removed from the bag in a sterile manner (i.e., the hand was not permitted to contact any non-sterile objects). Using sterile gloves and a sterile cotton collection swab, the technician collected 56 a second sample by rubbing the swab on the back of the hand for ten seconds. The swab was then applied 58 to a nutrient dish as explained above.
A similar process was followed with the volunteer's other hand. […]

Take `[N]=O` [nitric oxide]: where the note is “bacteria exposed to nitric oxide, microbes on healthy skin”, the “reductions in colony counts of bacteria” value is reported as “substantial reductions in colony counts”. Moreover, the anti-microbial effects result (direct comparison: immersing in enclosed environment of nitric oxide diluted with ambient air vs scrubbing with antibacterial soaps) is recorded as “superior to soaps”. Further, the bacterial colony count result (hands exposed to 1,000 ppm nitric oxide for fifteen minutes, compared with hands washed with DIAL antibacterial soap for 2 minutes, five volunteers) is given as “lower bacterial colony count”.
